# Where two headings read alike, the source gives them in different places. Where a SMILES comes first, the peptide text is derived from it. Bridges are numbered along the chain shown (N, C = ends). Roman numbers before positions name the chains, in order. [ ]: non-standard residue; d: D form. βAla = NCCC(=O)O
# Assays:
# [1] = test system: E. faecalis; conditions: standard-of-care antibiotics against E. faecalis; cited from earlier work
# Method: As reported in Table 2, biofilm inhibition was tested against two strains of E. faecalis, ATCC 51,299 and PE endodontic isolate, and two strains of E. coli, TG1 reference strain and LC711 clinical isolate (Table 2). The BPC of M33D was equal to the MIC against E. faecalis reference strain ATCC 51,299 and clinical isolate PE. The BPC of M33i/l was double and equal to the MIC in E. faecalis reference strain and clinical isolate, respectively. The MBIC of both peptides against E. faecalis reference strain and PE was 6 μM, i.e., from two to three times the MIC. The results are particularly promisi ...
# [2] = test system: E. faecalis ATCC 51299; assay type: cell-based, Enterococcus faecalis
# Method: (§1) The bacteria reported in Table 1 were used for conventional susceptibility testing experiments. M33D and M33i/l MICs were determined in triplicate on reference and clinical strains using a microdilution assay, performed according to the guidelines of the Clinical and Laboratory Standards Institute. Briefly, strains were grown on Mueller–Hinton (MH) agar plates (Becton Dickinson, Franklin Lakes, NJ, USA) and a single colony for each strain was picked using a sterile cotton swab, streaked in sterile cation-supplemented MH, and measured with a densitometer (Densichek, bioMèrieux, Marcy l’Etoile, France) up to 0.15 optical density. Wells of a microtiter plate containing 50 μL serial-doubling dilutions of the peptides were inoculated with an equal volume of bacterial suspension. The final bacterial inoculum was 5 × 10^4 CFU/well in a volume of 100 μL. […] Assays were performed in triplicate, and the median MIC values were recorded.
# [3] = test system: E. faecalis PE; assay type: cell-based, Enterococcus faecalis
# Method: as §1
# [4] = test system: E. faecalis ATCC 51299; assay type: cell-based, Enterococcus faecalis; conditions: 24 h preformed biofilm challenged with peptide 14 h at 37 °C, crystal violet OD595, triplicate wells
# Method: (§2) For MBIC, the bacterial suspension (200 μL) of E. faecalis PE, E. faecalis 51299, E. coli TG1, or E. coli LC711, obtained as above, was added to wells in triplicate, in a 96-well U-bottom plate and incubated at 37 °C for 24h. The supernatant was removed, and 200 μL M33D and M33i/l diluted in TSB was added to the wells in twofold serial dilutions of each peptide.
# (§3) Untreated bacteria were used as positive control. After 14 h of static incubation at 37 °C, wells were washed thrice with PBS and fixed with PFA 4% in PBS (200 μL) for 30 min at room temperature. Wells were then washed three times, and crystal violet (1% in water) was added and incubated for 30 min in the dark. Wells were again washed, and the color dissolved with ethanol/acetone 80:20. Color was read at 595 nm. The MBIC is the lowest concentration of an antibiotic that results in an OD595 nm difference of ≤10% of the mean of two control well readings.
# (§4) Biofilm inhibition activity was evaluated on the basis of two parameters: the biofilm prevention concentration (BPC) and the minimal biofilm inhibition concentration (MBIC). The BPC is the lowest concentration of peptide that results in 10% lower biofilm formation compared to untreated controls. The biofilm was measured after removing planktonic cells by washing the wells, previously incubated for 24 h with the bacteria and the peptide. MBIC is the lowest concentration of peptide that results in a 10% reduction in preformed biofilm compared to untreated controls. A 24 h biofilm was challenged with serial dilutions of the peptides for 14 h. Then after removal of planktonic cells, the residual biofilm was measured. Crystal violet absorbance at […] was used to measure biofilm in the case of both parameters.
# [5] = test system: E. faecalis PE; assay type: cell-based, Enterococcus faecalis; conditions: 24 h preformed biofilm challenged with peptide 14 h at 37 °C, crystal violet OD595, triplicate wells
# Method: as §2, §3, §4
# [6] = test system: K. pneumoniae ATCC 13833; assay type: cell-based, Klebsiella pneumoniae
# Method: as §1
# [7] = test system: K. pneumoniae 7086042; assay type: cell-based, Klebsiella pneumoniae
# Method: as §1
# [8] = Eukaryotic cell viability assay (MTT); assay type: cell-based, murine; conditions: mouse
# Method: RAW 264.7 cells, 5 × 10^3 per well, were seeded in 96-well plates and incubated for 24 h at 37 °C in a 5% CO2 atmosphere. A 100 μL volume of peptides at different concentrations in fresh medium was then added to the wells and kept for 24 h. Then 20 μL MTT (5 mg/mL) was added to each well, and the plate was incubated at 37 °C for 3 h. Finally, 120 μL HCl 4 mM in isopropanol was added to each well to dissolve the formazan crystals. Optical density was measured with a microplate reader (Bio-Rad, Hercules, CA, USA) at 570 nm. Cell viability was calculated by comparing the values of treated with those of untreated cells. Curves and EC50 were calculated using GraphPad Prism 5.03 software.
# [9] = test system: E. coli ATCC 25922; assay type: cell-based, Escherichia coli
# Method: as §1
# [10] = test system: E. coli TG1; assay type: cell-based, Escherichia coli; conditions: reference strain; CLSI microdilution, 5 × 10^4 CFU/well, 35° 18–20 h, median of triplicate
# Method: as §1
# [11] = test system: E. coli W03BG0025; assay type: cell-based, Escherichia coli
# Method: as §1
# [12] = test system: E. coli LC711; assay type: cell-based, Escherichia coli
# Method: as §1
# [13] = test system: S. aureus 3851; assay type: cell-based, Staphylococcus aureus
# Method: as §1
# [14] = test system: S. aureus USA 300; assay type: cell-based, Staphylococcus aureus
# Method: as §1
# [15] = test system: S. epidermidis ATCC 14990; assay type: cell-based
# Method: as §1
# [16] = test system: S. epidermidis 6154; assay type: cell-based
# Method: as §1
# [17] = test system: P. aeruginosa ATCC 27853; assay type: cell-based, Pseudomonas aeruginosa
# Method: as §1
# [18] = test system: P. aeruginosa AV 65; assay type: cell-based, Pseudomonas aeruginosa
# Method: as §1
# [19] = in vitro; assay type: in vitro ADME; conditions: human, serum
# Method: A pool of sera from healthy volunteers (n = 5) was diluted to 50% with RPMI 1640 medium. A 5 μg/mL solution of the peptides in 50% serum was incubated at 37 °C for different time intervals (2, 4, 24, 48, and 72 h). At the established time, trichloroacetic acid was added at a 7.5% concentration, and the sample was centrifuged at 12,000–13,000× g for 15 min. Part of the supernatant was used for the MALDI-TOF analysis (2 μL) and part (250 μL) for the HPLC analysis, after being diluted with 1% TFA (750 μL). Time-zero HPLC and MS-spectroscopy spectra were obtained immediately after mixing the peptide with 50% serum. The presence of the intact peptide was determined in HPLC by spotting and integrating the peptide peak at the correct retention time. The identity of the peptide peak was further also confirmed by MALDI mass spectrometry.
# [20] = test system: E. coli TG1; assay type: cell-based, Escherichia coli; conditions: 24 h preformed biofilm challenged with peptide 14 h at 37 °C, crystal violet OD595, triplicate wells
# Method: as §2, §3, §4
# [21] = test system: E. coli LC711; assay type: cell-based, Escherichia coli; conditions: 24 h preformed biofilm challenged with peptide 14 h at 37 °C, crystal violet OD595, triplicate wells
# Method: as §2, §3, §4
# [22] = test system: E. faecalis Fi74B4; assay type: cell-based, Enterococcus faecalis
# Method: as §1
# [23] = test system: E. faecalis Fi74B1; assay type: cell-based, Enterococcus faecalis
# Method: as §1
# [24] = test system: C. glabrata ATCC 90030; assay type: cell-based
# [25] = test system: C. albicans ATCC 90028; assay type: cell-based
# [26] = test system: Candida species; assay type: cell-based
# [27] = test system: C. krusei ATCC 6268; assay type: cell-based
# [28] = test system: S. pneumoniae ATCC 49619; assay type: cell-based
# Method: as §1
# [29] = test system: Staphylococcus aureus and epidermidis; assay type: cell-based
# Method: as §1
# [30] = test system: S. pyogenes CCUG2557; assay type: cell-based
# Method: as §1
# [31] = test system: Enterococcus faecalis and faecium; assay type: cell-based
# Method: as §1
# [32] = test system: C. striatum ATCC; assay type: cell-based
# Method: as §1
smiles,measurement,setting,value
CC(=O)NC[C@H]1CN(c2ccc(N3CCOCC3)c(F)c2)C(=O)O1 [linezolid],MBIC as multiple of the MIC,[1],1024 times the MIC
CC1(C)S[C@@H]2[C@H](NC(=O)[C@H](N)c3ccccc3)C(=O)N2[C@H]1C(=O)O [ampicillin],MBIC as multiple of the MIC,[1],2048 times the MIC
"CC(C)C[C@@H](NC(=O)[C@@H](CCCCN)NC(=O)[C@H](N)CCCCN)C(=O)N[C@H](CCCNC(=N)N)C(=O)N[C@@H](C(=O)N[C@H](CCCNC(=N)N)C(=O)N[C@H](CC(C)C)C(=O)N[C@H](CO)C(=O)N[C@H](C)C(=O)NCCCC[C@H](NC(=O)[C@@H](C)NC(=O)[C@@H](CO)NC(=O)[C@@H](CC(C)C)NC(=O)[C@@H](CCCNC(=N)N)NC(=O)[C@H](NC(=O)[C@@H](CCCNC(=N)N)NC(=O)[C@@H](CC(C)C)NC(=O)[C@@H](CCCCN)NC(=O)[C@H](N)CCCCN)C(C)C)C(=O)NCCCC[C@H](NC(=O)[C@H](CCCCNC(=O)[C@@H](C)NC(=O)[C@@H](CO)NC(=O)[C@@H](CC(C)C)NC(=O)[C@@H](CCCNC(=N)N)NC(=O)[C@H](NC(=O)[C@@H](CCCNC(=N)N)NC(=O)[C@@H](CC(C)C)NC(=O)[C@@H](CCCCN)NC(=O)[C@H](N)CCCCN)C(C)C)NC(=O)[C@@H](C)NC(=O)[C@@H](CO)NC(=O)[C@@H](CC(C)C)NC(=O)[C@@H](CCCNC(=N)N)NC(=O)[C@H](NC(=O)[C@@H](CCCNC(=N)N)NC(=O)[C@@H](CC(C)C)NC(=O)[C@@H](CCCCN)NC(=O)[C@H](N)CCCCN)C(C)C)C(=O)NCCC(=O)O)C(C)C [M33i/l] (I: H-[dK][dK][dL][dR][dV][dR][dL][dS][dA]KK[βAla]-OH / II: H-[dK][dK][dL][dR][dV][dR][dL][dS][dA]K / III: H-[dK][dK][dL][dR][dV][dR][dL][dS][dA] / IV: H-[dK][dK][dL][dR][dV][dR][dL][dS][dA]; amide I:10-IV:C, I:11-II:C, II:10-III:C)",MIC,[2],1.5 (8) μM
same,MIC,[3],1.5 (8) μM
same,MBIC,[4],6 µM
same,MBIC,[5],6 µM
same,MIC,[6],3 (16) μM
same,MIC,[7],6 (32) μM
same,EC50 at 24 h,[8],18 µM
same,MIC,[9],3 (16) μM
same,MIC,[10],1.5 µM
same,MIC,[11],3 (16) μM
same,MIC,"[12]; ColR (colistin-resistant) clinical isolate, CLSI microdilution, 5 × 10^4 CFU/well, 35° 18–20 h, median of triplicate",0.3 (1.6) μM
same,MIC,[13],0.8 (4) μM
same,MIC,[14],1.5 (8) μM
same,MIC,[15],0.8 (4) μM
same,MIC,[16],0.8 (4) μM
same,MIC,[17],0.8 (4) μM
same,MIC,[18],1.5 (8) μM
same,"remaining at 72 h, 5 μg/mL",[19],25%
same,MBIC,[20],3 µM
same,MBIC,[21],3 µM
CC[C@@H](C)[C@@H](NC(=O)[C@@H](CCCCN)NC(=O)[C@H](N)CCCCN)C(=O)N[C@H](CCCNC(=N)N)C(=O)N[C@@H](C(=O)N[C@H](CCCNC(=N)N)C(=O)N[C@H](CC(C)C)C(=O)N[C@H](CO)C(=O)N[C@H](C)C(=O)NCCCC[C@H](NC(=O)[C@@H](C)NC(=O)[C@@H](CO)NC(=O)[C@@H](CC(C)C)NC(=O)[C@@H](CCCNC(=N)N)NC(=O)[C@H](NC(=O)[C@@H](CCCNC(=N)N)NC(=O)[C@H](NC(=O)[C@@H](CCCCN)NC(=O)[C@H](N)CCCCN)[C@H](C)CC)C(C)C)C(=O)NCCCC[C@H](NC(=O)[C@H](CCCCNC(=O)[C@@H](C)NC(=O)[C@@H](CO)NC(=O)[C@@H](CC(C)C)NC(=O)[C@@H](CCCNC(=N)N)NC(=O)[C@H](NC(=O)[C@@H](CCCNC(=N)N)NC(=O)[C@H](NC(=O)[C@@H](CCCCN)NC(=O)[C@H](N)CCCCN)[C@H](C)CC)C(C)C)NC(=O)[C@@H](C)NC(=O)[C@@H](CO)NC(=O)[C@@H](CC(C)C)NC(=O)[C@@H](CCCNC(=N)N)NC(=O)[C@H](NC(=O)[C@@H](CCCNC(=N)N)NC(=O)[C@H](NC(=O)[C@@H](CCCCN)NC(=O)[C@H](N)CCCCN)[C@H](C)CC)C(C)C)C(=O)NCCC(=O)O)C(C)C [M33D],MIC,[22],1.5 (8) μM
same,MIC,[23],0.8 (4) μM
same,MIC,[2],3 (16) μM
same,MIC,[3],1.5 (8) μM
same,MBIC,[4],6 µM
same,MBIC,[5],6 µM
same,MIC,[24],12 (64) μM
same,EC50 at 24 h,"[8]; 24 h incubation at 37 °C, MTT, n = 3, read-out: EC50 cytotoxicity",30 µM
same,MIC,[25],5 (24) μM
same,MIC range against Candida species,[26],5 to 12 µM
same,MIC,[10],1.5 µM
same,MIC,[12]; LC711,1.5 µM
same,MIC,[27],6 (32) μM
same,MIC,[28],6 (32) μM
same,MIC range against Staphylococcus aureus and epidermidis,[29],0.4 to 1.5 µM
same,MIC,[30],6 (32) μM
same,MIC range against Enterococcus faecalis and faecium,[31],0.8 to 3 µM
same,MIC,[32],1.5 µM
same,"remaining at 72 h, 5 μg/mL",[19],31%
same,MBIC,[20],3 µM
same,MBIC,[21],3 µM

# Source: article PMC9611259, “Antimicrobial Peptides Active in In Vitro Models of Endodontic Bacterial Infections Modulate Inflammation in Human Cardiac Fibroblasts” (Pharmaceutics, 2022)
